Active and inactive are the calls of the source.
Columns and labels:
[1] = system: Vero; assay: viability of Vero cells under compound – cytotoxicity control for flavivirus capping enzyme inhibitors (AID 588742); type: functional; conditions: Chlorocebus sabaeus
[2] = non-specific 3'UTR reporter inhibition in Clone20-Shn3RL – cell-based, Renilla luciferase, cherry-picked, counter-screen for Shn3 inhibitor project, dose response (AID 624133); type: functional
[3] = target: T1, CAAX prenyl protease 1 (Saccharomyces cerevisiae S288c, UniProt P47154); assay: yeast CAAX protease Ste24 inhibition – biochemical, S. cerevisiae, plate reader, cherry-pick, dose response (AID 488815)
T1 sequence (P47154 whole entry): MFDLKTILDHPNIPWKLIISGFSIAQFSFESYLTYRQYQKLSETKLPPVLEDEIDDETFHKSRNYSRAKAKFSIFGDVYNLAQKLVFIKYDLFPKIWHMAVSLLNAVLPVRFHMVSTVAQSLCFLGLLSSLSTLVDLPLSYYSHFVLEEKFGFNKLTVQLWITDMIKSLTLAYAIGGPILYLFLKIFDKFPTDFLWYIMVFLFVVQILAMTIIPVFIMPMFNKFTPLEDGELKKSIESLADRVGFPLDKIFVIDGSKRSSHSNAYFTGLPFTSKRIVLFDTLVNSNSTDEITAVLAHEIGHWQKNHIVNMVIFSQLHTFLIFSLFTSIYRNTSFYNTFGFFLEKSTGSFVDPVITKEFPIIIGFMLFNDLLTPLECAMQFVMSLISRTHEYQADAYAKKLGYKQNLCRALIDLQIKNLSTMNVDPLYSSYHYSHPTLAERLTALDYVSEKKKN

[4] = target: CAAX prenyl protease 2 (Saccharomyces cerevisiae S288c, UniProt Q03530); type: biochemical
[5] = system: BJ; assay: BJ-TERT fibroblast viability loss – cell-based, RAS-independent, luminescence, dose response (AID 1933); type: functional; conditions: Homo sapiens
[6] = loss of viability in HepG2 cells – cell-based, CellTiter-Glo, cherry-picked, cytotoxicity control for Shn3 inhibitor project, dose response (AID 624134); type: functional
[7] = DRD fibroblast viability loss – cell-based, non-viral oncogenic, luminescence, dose response (AID 1934); type: functional; conditions: Homo sapiens
[8] = Vero E6 cell cytotoxicity, dose response, cytotoxicity control for non-replicating M. tuberculosis project, secondary assay (AID 492998); type: functional, VeroE6; conditions: Vero C1008

Chain of CAAX prenyl protease 2 (Q03530 whole entry): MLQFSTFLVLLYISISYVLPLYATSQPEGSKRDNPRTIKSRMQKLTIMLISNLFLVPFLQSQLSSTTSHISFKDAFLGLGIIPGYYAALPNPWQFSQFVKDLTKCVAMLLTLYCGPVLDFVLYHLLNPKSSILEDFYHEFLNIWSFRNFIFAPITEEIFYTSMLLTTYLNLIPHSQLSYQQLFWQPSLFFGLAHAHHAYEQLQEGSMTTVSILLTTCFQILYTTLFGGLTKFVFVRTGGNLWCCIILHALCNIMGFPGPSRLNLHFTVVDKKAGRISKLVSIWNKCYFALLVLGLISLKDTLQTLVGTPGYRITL

In the case of CCOC(=O)c1ccc(NC2=CC(=O)C(=O)c3ccccc32)cc1, the CC50 [1] was 22.3 µM (active).
With OC(CNCCC1C=Nc2ccccc21)Cn1c2ccc(Cl)cc2c2cc(Cl)ccc21 (stereo not drawn) the AC50 [2] was 6.08 µM (active), the AC50 [3] was 4.42 µM (active) and the AC50 [4] was 8.21 µM (active). For the same compound, the EC50 [5] was 5.3 µM (inconclusive), the AC50 [6] was 9.39 µM (active) and the EC50 [7] was 9.1 µM (active).
For Cc1ccccc1-c1cc2c(nn1)-c1ccccc1C2=O, the CC50 [8] was 9.21 µM (active).

Source: ChEMBL document CHEMBL1201862, “PubChem BioAssay data set” (2004)
